Structures are written as SMILES. Read-outs that look alike come from different tables or passages of the source.

The target of this test is GCN2 (Homo sapiens, UniProt Q9P2K8). Description: GCN2 enzymatic endpoint assay: phosphorylation of GFP-eIF2α measured by TR-FRET (Lanthascreen). The format is biochemical. In short, it runs like this:
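Endpoint kinase reaction with 2 μM ATP and 80 nM GFP-labelled eIF2α substrate, run at room temperature for 90 min, then stopped with EDTA. Phospho-substrate detected by terbium-antibody TR-FRET, activity taken as the 520/495 nm emission ratio.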
A general note: In TR-FRET formats the signal depends on donor and acceptor labels being close together.

Where [1] appears, read: tested as described in Example 77, compound and/or hydrochloride, dihydrochloride or trifluoroacetic acid salt, read-out: IC 50 Activity.

Chain of GCN2 (Q9P2K8 whole entry): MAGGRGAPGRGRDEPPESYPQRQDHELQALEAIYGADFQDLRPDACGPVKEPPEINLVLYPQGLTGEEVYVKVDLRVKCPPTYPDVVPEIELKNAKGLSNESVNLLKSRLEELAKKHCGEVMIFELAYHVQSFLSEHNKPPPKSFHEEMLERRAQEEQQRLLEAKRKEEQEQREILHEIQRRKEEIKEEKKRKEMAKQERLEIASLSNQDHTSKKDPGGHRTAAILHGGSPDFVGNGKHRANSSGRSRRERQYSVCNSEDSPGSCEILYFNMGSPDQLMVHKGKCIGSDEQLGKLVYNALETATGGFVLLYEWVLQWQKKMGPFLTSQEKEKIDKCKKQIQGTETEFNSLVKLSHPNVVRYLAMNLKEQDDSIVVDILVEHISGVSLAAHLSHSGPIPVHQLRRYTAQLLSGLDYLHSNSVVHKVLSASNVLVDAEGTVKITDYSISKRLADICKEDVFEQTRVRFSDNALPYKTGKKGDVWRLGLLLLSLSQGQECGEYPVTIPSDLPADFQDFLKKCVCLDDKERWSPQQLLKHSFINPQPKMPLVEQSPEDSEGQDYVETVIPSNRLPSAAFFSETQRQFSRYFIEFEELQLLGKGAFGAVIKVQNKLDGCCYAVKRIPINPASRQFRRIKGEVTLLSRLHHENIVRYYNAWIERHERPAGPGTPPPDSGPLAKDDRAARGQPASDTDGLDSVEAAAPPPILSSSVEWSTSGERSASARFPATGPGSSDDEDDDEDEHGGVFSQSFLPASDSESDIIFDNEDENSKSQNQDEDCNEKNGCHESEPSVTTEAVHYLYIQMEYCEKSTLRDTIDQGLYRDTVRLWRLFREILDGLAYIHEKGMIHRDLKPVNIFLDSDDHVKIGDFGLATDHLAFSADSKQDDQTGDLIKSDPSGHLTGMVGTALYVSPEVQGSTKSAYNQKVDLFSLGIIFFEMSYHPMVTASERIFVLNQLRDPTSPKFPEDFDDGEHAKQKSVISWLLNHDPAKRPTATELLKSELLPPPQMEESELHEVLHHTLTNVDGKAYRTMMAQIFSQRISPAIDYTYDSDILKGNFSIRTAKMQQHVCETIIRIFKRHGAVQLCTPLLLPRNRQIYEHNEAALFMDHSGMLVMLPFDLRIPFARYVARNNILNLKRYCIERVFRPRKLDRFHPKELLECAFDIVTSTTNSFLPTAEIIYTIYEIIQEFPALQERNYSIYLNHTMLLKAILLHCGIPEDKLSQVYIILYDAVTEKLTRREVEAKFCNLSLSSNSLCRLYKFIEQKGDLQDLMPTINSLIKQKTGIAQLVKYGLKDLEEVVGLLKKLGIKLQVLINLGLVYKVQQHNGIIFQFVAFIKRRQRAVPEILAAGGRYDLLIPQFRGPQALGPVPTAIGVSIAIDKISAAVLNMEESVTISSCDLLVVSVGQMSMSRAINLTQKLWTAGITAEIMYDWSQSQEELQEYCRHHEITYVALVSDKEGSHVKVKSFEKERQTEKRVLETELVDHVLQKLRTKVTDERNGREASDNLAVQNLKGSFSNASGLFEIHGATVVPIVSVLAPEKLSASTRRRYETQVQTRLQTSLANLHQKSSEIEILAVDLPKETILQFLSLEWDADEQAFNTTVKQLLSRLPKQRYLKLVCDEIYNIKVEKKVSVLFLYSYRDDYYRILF

With `CNC(=O)[C@@H]1CC[C@@H](Nc2ncc3c(Br)nn(-c4ccc5c(C)nn(C)c5c4)c3n2)C1` [(1R,3R)-3-[[3-bromo-1-(1,3-dimethylindazol-6-yl)pyrazolo[3,4-d]pyrimidin-6-yl]amino]-N-methyl-cyclopentanecarboxamide], the IC50 under setting [1] was in the range of 25 to 200 nM.
For `O=C(O)C1CN(C(=O)[C@@H]2CC[C@@H](Nc3ncc4c(Br)nn(-c5ccc6ncccc6c5)c4n3)C2)CCN1` (mixture of isomers), the IC50 under setting [1] was under 25 nM.
Still for that read-out and setting: next, `Cc1nnc(-c2ccc(-n3nc(Br)c4cnc(N[C@@H]5CC[C@@](C)(N)C5)nc43)cc2)s1`: 25 to 200 nM.
Same read-out and setting: to `CNC(=O)[C@]1(C)CC[C@@H](Nc2ncc3c(Br)nn(-c4ccc(C(=O)c5ccno5)cc4)c3n2)C1` [(1R,3R)-3-[[3-bromo-1-[4-(isoxazole-5-carbonyl)phenyl]pyrazolo[3,4-d]pyrimidin-6-yl]amino]-N,1-dimethyl-cyclopentanecarboxamide] belongs 25 to 200 nM.
Take `COCCNC(=O)[C@@H]1CCC[C@@H](Nc2ncc3c(Br)nn(-c4ccc5ncccc5c4)c3n2)C1` [Example 20, (1R,3R)-3-((3-bromo-1-(quinolin-6-yl)-1H-pyrazolo[3,4-d]pyrimidin-6-yl)amino)-N-(2-methoxyethyl)cyclohexane-1-carboxamide]: where the note is “GCN2 biochemical IC50, 4 nM GCN2, 2 μM ATP, 80 nM GFP-eIF2α, 90 min RT, read-out: GCN2 activity”, the IC50 fell in the range of 500 to 1000 nM.
`N#Cc1cc(-n2nc(Br)c3cnc(N[C@@H]4CC[C@@H](C(=O)N5CC(N6CCC(F)(F)C6)C5)C4)nc32)cc2cccnc12` [6-(3-bromo-6-(((1R,3R)-3-(3-(3,3-difluoro-pyrrolidin-1-yl)azetidine-1-carbonyl)cyclo-pentyl)amino)-1H-pyrazolo[3,4-d]pyrimidin-1-yl)quinoline-8-carbonitrile]: the IC50 under setting [1] fell in the range of 25 to 200 nM.
Same read-out and setting: next, `CNC(=O)[C@]1(C)CC[C@@H](Nc2ncc3c(Br)nn(-c4cc(OCCOC)c5ncccc5c4)c3n2)C1` [(1R,3R)-3-[[3-bromo-1-[8-(2-methoxy-ethoxy)-6-quinolyl]pyrazolo[3,4-d]pyrimidin-6-yl]amino]-N,1-dimethyl-cyclopentanecarboxamide]: under 25 nM; `CNC(=O)[C@]1(C)CC[C@@H](Nc2ncc3c(Br)nn(-c4ccc5c(c4)CNC(=O)C5)c3n2)C1` [(1R,3R)-3-[[3-bromo-1-(3-oxo-2,4-dihydro-1H-isoquinolin-7-yl)pyrazolo [3,4-d]pyrimidin-6-yl]amino]-N,1-dimethyl-cyclopentanecarboxamide]: 25 to 200 nM; `CNC(=O)[C@]1(C)CC[C@@H](Nc2ncc3c(Br)nn(-c4ccc5nc(N)nc(N)c5c4)c3n2)C1` [(1R,3R)-3-[[3-bromo-1-(2,4-diamino-quinazolin-6-yl)pyrazolo[3,4-d]pyrimidin-6-yl]amino]-N,1-dimethyl-cyclopentane-carboxamide; 2,2,2-trifluoroacetic acid]: 25 to 200 nM.
On the same count and under the same terms, next, `CNC(=O)[C@]1(C)CC[C@@H](Nc2ncc3c(Br)nn(-c4cc(C5CCNC5)c5ncccc5c4)c3n2)C1` (stereo partly drawn) [(1R,3R)-3-[[3-bromo-1-(8-pyrrolidin-3-yl-6-quinolyl)pyrazolo[3,4-d]pyrimidin-6-yl]amino]-N,1-dimethyl-cyclopentane-carboxamide]: under 25 nM.
The same measure, in the same setting: to `CNC(=O)[C@]1(C)CC[C@@H](Nc2ncc3c(Br)nn(-c4cc(C5CCCO5)c5ncccc5c4)c3n2)C1` (stereo partly drawn) [(1R,3R)-3-[[3-bromo-1-(8-tetrahydrofuran-2-yl-6-quinolyl)pyrazolo[3,4-d]pyrimidin-6-yl]amino]-N,1-dimethyl-cyclopentane-carboxamide] belongs 25 to 200 nM.
On to `CNC(=O)C1(CCC#N)CC[C@@H](Nc2ncc3c(Br)nn(-c4ccc(-c5nnc(C)s5)cc4)c3n2)C1` (stereo partly drawn) [(3R)-3-[[3-bromo-1-[4-(5-methyl-1,3,4-thiadiazol-2-yl)phenyl]pyrazolo[3,4-d]pyrimidin-6-yl]amino]-1-(2-cyanoethyl)-N-methyl-cyclopentanecarboxamide], for which the IC50 under setting [1] lay within 25 to 200 nM.
The same measure, in the same setting: to `CN1CCN(C(=O)[C@@H]2CC[C@@H](Nc3ncc4c(Br)nn(-c5cnc6c(Cl)nccc6c5)c4n3)C2)CC1=O` [4-((1R,3R)-3-((3-bromo-1-(8-chloro-1,7-naphthyridin-3-yl)-1H-pyrazolo[3,4-d]pyrimidin-6-yl)amino)cyclopentane-1-carbonyl)-1-methylpiperazin-2-one] belongs 25 to 200 nM.
Still for that read-out and setting: next, `CNC(=O)[C@]1(C)CC[C@@H](Nc2ncc3c(Br)nn(-c4ccc(-c5nnc(C)s5)c(CCCN)c4)c3n2)C1` [(1R,3R)-3-[[1-[3-(3-aminopropyl)-4-(5-methyl-1,3,4-thiadiazol-2-yl)phenyl]-3-bromopyrazolo[3,4-d]pyrimidin-6-yl]amino]-N,1-dimethyl-cyclopentanecarboxamide]: 25 to 200 nM.
Same read-out and setting: next, `Cc1nnc(-c2ccc(-n3nc(Br)c4cnc(NC5CCOC5)nc43)cc2)s1` (stereo not shown) [3-bromo-1-[4-(5-methyl-1,3,4-thiadiazol-2-yl)phenyl]-N-tetrahydrofuran-3-yl-pyrazolo [3,4-d]pyrimidin-6-amine]: 25 to 200 nM.
On to `Cc1nnc(-c2ccc(-n3nc(Br)c4cnc(N[C@@H]5CC[C@]6(CCNC6=O)C5)nc43)cc2CCC#N)s1`, for which, under setting [1], the IC50 lay within 25 to 200 nM.
Same read-out and setting: next, `O=C1CN(C(=O)[C@@H]2CC[C@@H](Nc3ncc4c(Br)nn(-c5ccc(-c6ncco6)cc5)c4n3)C2)CCN1` [4-((1R,3R)-3-((3-bromo-1-(4-(oxazol-2-yl)phenyl)-1H-pyrazolo[3,4-d]pyrimidin-6-yl)amino)cyclopentane-1-carbonyl)piperazin-2-one]: 25 to 200 nM; `CNC(=O)[C@]1(CC(F)F)CC[C@@H](Nc2ncc3c(Br)nn(-c4cc(C#N)cc(OCC5CNC5)c4)c3n2)C1` [(1R,3R)-3-[[1-[3-(azetidin-3-ylmethoxy)-5-cyano-phenyl]-3-bromo-pyrazolo[3,4-d]pyrimidin-6-yl]amino]-1-(2,2-difluoroethyl)-N-methyl-cyclopentanecarboxamide]: 25 to 200 nM; `CNC(=O)[C@]1(COC)CC[C@@H](Nc2ncc3c(Br)nn(-c4cc(F)c5ncccc5c4)c3n2)C1` [(1R,3R)-3-[[3-bromo-1-(8-fluoro-6-quinolyl)pyrazolo[3,4-d]pyrimidin-6-yl]amino]-1-(methoxymethyl)-N-methyl-cyclopentane-carboxamide]: under 25 nM.
Turning to `CNC(=O)[C@]1(CC(F)F)CC[C@@H](Nc2ncc3c(Br)nn(-c4cc(CCO)c5ncccc5c4)c3n2)C1` [(1R,3R)-3-[[3-bromo-1-[8-(2-hydroxyethyl)-6-quinolyl]pyrazolo[3,4-d]pyrimidin-6-yl]amino]-1-(2,2-difluoroethyl)-N-methyl-cyclo-pentanecarboxamide], the IC50 under setting [1] was in the range of 25 to 200 nM.
Same read-out and setting: to `CNC(=O)[C@]1(C)CC[C@@H](Nc2ncc3c(Br)nn(-c4ccc(-c5nnc(C)s5)c(OCC5CNC5)c4)c3n2)C1` [(1R,3R)-3-[[1-[3-(azetidin-3-ylmethoxy)-4-(5-methyl-1,3,4-thiadiazol-2-yl)phenyl]-3-bromo-pyrazolo[3,4-d]pyrimidin-6-yl]amino]-N,1-dimethyl-cyclopentane-carboxamide] belongs 25 to 200 nM; to `CNC(=O)C1(C)CC[C@@H](Nc2ncc3c(Br)nn(-c4ccc(-c5cnccn5)cc4)c3n2)C1` (stereo partly drawn) [(3R)-3-[[3-bromo-1-(4-pyrazin-2-ylphenyl)pyrazolo[3,4-d]pyrimidin-6-yl]amino]-N,1-dimethyl-cyclopentanecarboxamide], 25 to 200 nM.
